How the values were obtained:
[1] = system: antibodies in sera from SARS patients (sera 1a, 1b, 2, 6, 37, 62, London, SARS-yellow, SARS-green); format: binding, human; parameters: Binding of serum 6 to linear peptides of protein X1 of SARS-CoV Urbani / Binding of serum 37 to linear peptides of protein X1 of SARS-CoV Urbani / Binding of serum 6 to looped/cyclic peptide (PEPSCAN-ELISA) / Binding of serum 37 to looped/cyclic peptide (PEPSCAN-ELISA) / Binding of serum 37 to looped/cyclic peptides of protein X1 of SARS-CoV Urbani / Binding of serum 6 to linear peptides of protein X2 / Binding of serum 37 to linear peptides of protein X2 / Binding of serum 37 to looped/cyclic peptides of protein X2 of SARS-CoV Urbani / Binding of serum 6 to linear peptides of protein M of SARS-CoV Urbani / Binding of serum 37 to linear peptides of protein M of SARS-CoV Urbani / Binding of serum 6 to looped/cyclic peptides of protein M of SARS-CoV Urbani / Binding of serum 37 to looped/cyclic peptides of protein M of SARS-CoV Urbani / Binding of serum 6 to linear peptides of protein X3 of SARS-CoV Urbani / Binding of serum 37 to linear peptides of protein X3 of SARS-CoV Urbani / Binding of serum 37 to looped/cyclic peptides of protein X3 of SARS-CoV Urbani / Binding of serum 6 to linear peptides of protein X4 of SARS-CoV Urbani / Binding of serum 37 to linear peptides of protein X4 of SARS-CoV Urbani / Binding of serum 37 to looped/cyclic peptides of protein X4 of SARS-CoV Urbani / Binding of serum 6 to linear peptides of protein X5 of SARS-CoV Urbani / Binding of serum 37 to linear peptides of protein X5 of SARS-CoV Urbani / Binding of serum 37 to looped/cyclic peptides of protein X5 of SARS-CoV Urbani / Binding of serum 6 to linear peptides of protein N of SARS-CoV Urbani / Binding of serum 37 to linear peptides of protein N of SARS-CoV Urbani / Binding of serum 6 to linear peptide (PEPSCAN-ELISA) / Binding of serum 1a to looped/cyclic peptides of protein N of SARS-CoV Urbani / Binding of serum 1b to looped/cyclic peptides of protein N of SARS-CoV Urbani / Binding of serum 2 to looped/cyclic peptides of protein N of SARS-CoV Urbani / Binding of serum 6 to looped/cyclic peptides of protein N of SARS-CoV Urbani / Binding of serum 37 to looped/cyclic peptides of protein N of SARS-CoV Urbani / Binding of serum 62 to looped/cyclic peptides of protein N of SARS-CoV Urbani / Binding of serum London to looped/cyclic peptides of protein N of SARS-CoV Urbani / Binding of serum SARS-green to looped/cyclic peptides of protein N of SARS-CoV Urbani: unit not given here
[2] = system: control sera (pooled serum of ten healthy LUMC hospital workers; commercial negative donor pooled serum from the Dutch bloodbank); format: binding, human; parameters: Binding of Control serum LUMC to linear peptides / Binding of Control serum Blood-bank to linear peptides / Binding of Control serum LUMC to looped peptides / Binding of Control Serum Blood-Bank to Looped peptides / Binding of Control serum LUMC to linear peptides of the protein M of SARS-CoV Urbani / Binding of Control serum Blood-bank to linear peptides of the protein M of SARS-CoV Urbani / Binding of Control serum LUMC to looped peptides of the protein M of SARS-CoV Urbani / Binding of Control Serum Blood-Bank to Looped peptides of the protein M of SARS-CoV Urbani: unit not given here
[3] = system: rabbit serum obtained by immunizing a rabbit with the SARS-CoV strain Frankfurt 1; format: binding; parameters: Binding of a rabbit serum to linear peptides / Binding of a rabbit serum to looped peptides / Rabbit serum linear peptides / Rabbit serum looped peptides / Binding of a rabbit serum to linear peptides of protein N of SARS-CoV Urbani (Rabbit serum linear peptides) / Binding of a rabbit serum to looped/cyclic peptides of protein N of SARS-CoV Urbani (Rabbit serum looped peptides): unit not given here
[4] = system: recombinant human anti-SARS-CoV antibody 03-018; format: binding; parameters: Binding of antibody 03-018 to linear peptides of the N protein of SARS-CoV Urbani / Binding of antibody 03-018 to looped/cyclic peptides of the N protein of SARS-CoV Urbani: unit not given here

Sequence | Binding of serum 1a to linear peptides of protein N of SARS-CoV Urbani [1] | Binding of serum 1a to looped/cyclic peptides of protein N of SARS-CoV Urbani [1] | Binding of serum 1b to linear peptides of protein N of SARS-CoV Urbani [1] | Binding of serum 1b to looped/cyclic peptides of protein N of SARS-CoV Urbani [1] | Binding of serum 2 to linear peptides of protein N of SARS-CoV Urbani [1] | Binding of serum 2 to looped/cyclic peptides of protein N of SARS-CoV Urbani [1] | Binding of serum 6 to linear peptides of protein N of SARS-CoV Urbani [1] | Binding of serum 6 to looped/cyclic peptides of protein N of SARS-CoV Urbani [1] | Binding of serum 37 to linear peptides of protein N of SARS-CoV Urbani [1] | Binding of serum 37 to looped/cyclic peptides of protein N of SARS-CoV Urbani [1] | Binding of serum 62 to linear peptides of protein N of SARS-CoV Urbani [1] | Binding of serum 62 to looped/cyclic peptides of protein N of SARS-CoV Urbani [1] | Binding of serum London to linear peptides of protein N of SARS-CoV Urbani [1] | Binding of serum London to looped/cyclic peptides of protein N of SARS-CoV Urbani [1] | Binding of serum SARS-green to looped/cyclic peptides of protein N of SARS-CoV Urbani [1] | Binding of serum SARS-yellow to looped/cyclic peptides of protein N of SARS-CoV Urbani [1] | Binding of a rabbit serum to linear peptides of protein N of SARS-CoV Urbani (Rabbit serum linear peptides) [3] | Binding of a rabbit serum to looped/cyclic peptides of protein N of SARS-CoV Urbani (Rabbit serum looped peptides) [3] | Binding of antibody 03-018 to linear peptides of the N protein of SARS-CoV Urbani [4] | Binding of antibody 03-018 to looped/cyclic peptides of the N protein of SARS-CoV Urbani [4] | also measured
PINTNSGPDDQIGYY | 0.2 | 0.4 | 0.2 | 0.4 | 0.2 | 0.4 | 0.2 | 0.2 | 0.9 | 0.7 | 0.7 | 0.5 | 0.4 | 0.4 | 0.8 | 0.5 | 0.1 | 0.4 | 0.1 | 0.2 | Binding of serum SARS-green to linear peptides of protein N of SARS-CoV Urbani [1]: 0.3; Binding of serum SARS-yellow to linear peptides of protein N of SARS-CoV Urbani [1]: 0.6; Binding of Control Serum Blood-Bank to Looped peptides [2]: 0.5; Binding of Control serum Blood-bank to linear peptides [2]: 0.7; Binding of Control serum LUMC to linear peptides [2]: 0.7; Binding of Control serum LUMC to looped peptides [2]: 0.6
PKGFYAEGSRGGSQA |  | 0.3 |  | 0.3 |  | 0.3 |  | 0.2 |  | 0.4 |  | 0.5 |  | 0.3 | 0.4 | 0.2 | 0.1 | 0.1 | 0.1 | 0.2 | Binding of serum 1a to linear peptide (PEPSCAN-ELISA) [1]: 0.3; Binding of serum 1b to linear peptide (PEPSCAN-ELISA) [1]: 0.1; Binding of serum 2 to linear peptide (PEPSCAN-ELISA) [1]: 0.2; Binding of serum 6 to linear peptide (PEPSCAN-ELISA) [1]: 0.2; Binding of serum 37 to linear peptide (PEPSCAN-ELISA) [1]: 0.6; Binding of serum 62 to linear peptide (PEPSCAN-ELISA) [1]: 0.6; Binding of serum London to linear peptide (PEPSCAN-ELISA) [1]: 0.5; Binding of serum SARS-green to linear peptide (PEPSCAN-ELISA) [1]: 0.0; Binding of serum SARS-yellow to linear peptide (PEPSCAN-ELISA) [1]: 0.5; Binding of Control Serum Blood-Bank to Looped peptides [2]: 0.5; Binding of Control serum Blood-bank to linear peptides [2]: 0.8; Binding of Control serum LUMC to linear peptides [2]: 0.7; Binding of Control serum LUMC to looped peptides [2]: 0.5
PKKDKKKKTDEAQPL | 0.2 | 0.2 | 0.1 | 0.1 | 2.5 | 0.2 | 0.2 | 0.1 | 0.7 | 0.4 | 0.7 | 0.3 | 0.5 | 0.3 | 0.1 | 0.2 | 0.1 | 0.0 | 0.1 | 0.2 | Binding of serum SARS-green to linear peptides of protein N of SARS-CoV Urbani [1]: 0.1; Binding of serum SARS-yellow to linear peptides of protein N of SARS-CoV Urbani [1]: 0.5; Control Serum Blood-Bank Looped peptides [2]: 0.4; Control serum Blood-bank linear peptides [2]: 0.8; Control serum LUMC linear peptides [2]: 0.8; Control serum LUMC looped peptides [2]: 0.3

— patent publication US20070128217A1 (priority 2003, published 2007)
